For experiment [1], the system named is rhinovirus B14. The experiment in a line: Compound was evaluated for the inactivation of HRV 14 3C protease activity expressed as KI. Format: functional, human rhinovirus type 14.
The subject of experiment [2] is rhinovirus B14. Put plainly: Compound was evaluated for the inactivation of HRV 14 3C protease activity expressed as kinact. Format: functional, human rhinovirus type 14.

Square brackets hold non-standard residues; d marks the D form. Peptide text beside a SMILES is read from it. Cys(NO) = N[C@@H](CSN=O)C(=O)O

Among the data in ChEMBL document CHEMBL1133312, “S-nitrosothiols as novel, reversible inhibitors of human rhinovirus 3C protease” (Bioorg Med Chem Lett, 2000) are Ki and K inact values, retold here.

The molecule `C[C@@H](CSN=O)C(=O)N1CCC[C@H]1C(=O)O` displayed a Ki in the experiment with rhinovirus B14 [1] of 2110 µM. In the experiment on rhinovirus B14 [2], this molecule yielded a K inact of 0.457 min⁻¹.
`CC(=O)N[C@@H](C(=O)NC1C(O)OC(CO)C(O)C1O)C(C)(C)SN=O` (stereo not given in full) displayed a Ki in the experiment on rhinovirus B14 [1] of 5040 µM. In the experiment with rhinovirus B14 [2], this molecule displayed a K inact of 0.982 min⁻¹.
The matching figures for `CC(=O)N[C@@H](C(=O)O)C(C)(C)SN=O`: 1860 µM and 0.243 min⁻¹.
Molecule `CC(=O)N[C@@H](CCC(=O)O)C(=O)N[C@@H](C)C(=O)N[C@@H](CC(C)C)C(=O)N[C@@H](Cc1ccccc1)C(=O)N[C@@H](CCC(N)=O)C(=O)N[C@@H](CSN=O)C(=O)NCC(=O)O` (Ac-EALFQ[Cys(NO)]G-OH) gave a Ki in the experiment on rhinovirus B14 [1] of 20 µM. In the experiment with rhinovirus B14 [2], this molecule had a K inact of 0.107 min⁻¹.
In the experiment on rhinovirus B14 [1], `N[C@@H](CCC(=O)N[C@@H](CSN=O)C(=O)NCC(=O)O)C(=O)O` [S-NITROSOGLUTATHIONE] gave a Ki of 360 µM. Also, in the experiment with rhinovirus B14 [2], the K inact turned out to be 0.237 min⁻¹.
